Assay results taken from patent US11566007B2, “Ras inhibitors” (Revolution Medicines, Inc., priority 2019, dated 2023).
pEC50, pIC50: −log10 of the molar value.

Experiments:
[1] = system: NCI-H358 cells (K-Ras G12C); test: Potency assay: pERK in NCI-H358 cells; format: cell-based, human; conditions: Homo sapiens, NCI-H358; H358 KRAS G12C; read-out: pERK EC50
Procedure, shortened: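 Compounds are dosed as ten 3-fold dilutions from a 10 mM DMSO stock, in duplicate, and left on cells for 4 h at 37 °C, 5% CO2. Phospho-ERK1/2 is then quantified by AlphaLISA SureFire Ultra or In-Cell Western, and IC50 is derived from a 4-parameter sigmoid against log concentration.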

[2] = target: KRAS G12D (Homo sapiens (Human), UniProt P01116+P62937, G12D); test: Ras-Raf (BRAF RBD) disruption / FRET / MOA assay, KRAS G12D; format: biochemical; conditions: Ras-Raf disruption/FRET/MOA assay; class symbols; read-out: KRAS G12D FRET data IC50
Procedure, shortened: (§1)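 Compound-driven ternary complex of nucleotide-loaded Ras with cyclophilin A, disrupting BRAF RBD binding. 10-point 3-fold dilution from 30 μM final, 3 h at 25° C, then anti-His Eu-W1024 (10 nM) and anti-GST allophycocyanin (50 nM) for 1.5 h. IC50 from TR-FRET ratio decrease versus DMSO.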

[3] = target: KRAS Q61H (Homo sapiens (Human), UniProt P01116+P62937, Q61H); test: Ras-Raf (BRAF RBD) disruption / FRET / MOA assay, KRAS Q61H; format: biochemical; conditions: Ras-Raf disruption/FRET/MOA assay; class symbols; read-out: KRAS Q61H FRET data IC50
Procedure, shortened: (§2)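 Compounds (30 μM top final, 10-point 3-fold dilutions) incubated 3 h at 25° C with nucleotide-loaded Ras, cyclophilin A and BRAF RBD. Detection with 10 nM anti-His Eu-W1024 and 50 nM anti-GST allophycocyanin over another 1.5 h. Lowered TR-FRET ratio relative to DMSO wells gives IC50.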

[4] = target: NRAS G12C (Homo sapiens (Human), UniProt P01111+P62937, G12C); test: Ras-Raf (BRAF RBD) disruption / FRET / MOA assay, NRAS G12C; format: biochemical; conditions: read-out: IC50* NRAS G12C FRET data
Procedure, shortened: as §1

[5] = target: NRAS Q61R (Homo sapiens (Human), UniProt P01111+P62937, Q61R); test: Ras-Raf (BRAF RBD) disruption / FRET / MOA assay, NRAS Q61R; format: biochemical; conditions: NRAS Q61R; Ras-Raf disruption/FRET/MOA assay; read-out: IC50* NRAS Q61R FRET data
Procedure, shortened: as §2

[6] = target: NRAS Q61K (Homo sapiens (Human), UniProt P01111+P62937, Q61K); test: Ras-Raf (BRAF RBD) disruption / FRET / MOA assay, NRAS Q61K; format: biochemical; conditions: NRAS Q61K; Ras-Raf disruption/FRET/MOA assay; read-out: IC50* NRAS Q61K FRET data
Procedure, shortened: as §2

Sequence of NRAS Q61R (P01111 whole entry Q61R): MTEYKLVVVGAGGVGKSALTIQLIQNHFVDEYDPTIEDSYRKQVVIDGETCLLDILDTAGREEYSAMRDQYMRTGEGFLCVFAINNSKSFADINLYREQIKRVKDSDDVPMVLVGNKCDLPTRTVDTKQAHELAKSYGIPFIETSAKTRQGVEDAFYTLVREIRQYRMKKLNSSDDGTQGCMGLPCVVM
Sequence of NRAS Q61R (P62937 whole entry): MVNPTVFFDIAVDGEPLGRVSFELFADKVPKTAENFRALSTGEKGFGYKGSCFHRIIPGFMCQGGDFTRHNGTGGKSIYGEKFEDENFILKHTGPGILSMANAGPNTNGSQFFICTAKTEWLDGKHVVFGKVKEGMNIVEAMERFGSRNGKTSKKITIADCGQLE
Sequence of NRAS Q61K (P01111 whole entry Q61K): as the sequence (P01111 whole entry Q61R) above, with R61K counted along it
Sequence of NRAS Q61K (P62937 whole entry): as the sequence (P62937 whole entry) above
Sequence of KRAS G12D (P01116-2 other isoform, or with tags, fused parts or gaps G12D): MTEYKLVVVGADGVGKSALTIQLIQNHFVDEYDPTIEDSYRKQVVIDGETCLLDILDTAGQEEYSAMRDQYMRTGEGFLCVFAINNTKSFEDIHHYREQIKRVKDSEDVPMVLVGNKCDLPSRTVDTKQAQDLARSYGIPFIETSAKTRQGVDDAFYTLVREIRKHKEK
Sequence of KRAS G12D (P62937 whole entry): as the sequence (P62937 whole entry) above
Sequence of NRAS G12C (P01111 whole entry G12C): as the sequence (P01111 whole entry Q61R) above, with G12C, R61Q counted along it
Sequence of NRAS G12C (P62937 whole entry): as the sequence (P62937 whole entry) above
Sequence of KRAS Q61H (P01116-2 other isoform, or with tags, fused parts or gaps Q61H): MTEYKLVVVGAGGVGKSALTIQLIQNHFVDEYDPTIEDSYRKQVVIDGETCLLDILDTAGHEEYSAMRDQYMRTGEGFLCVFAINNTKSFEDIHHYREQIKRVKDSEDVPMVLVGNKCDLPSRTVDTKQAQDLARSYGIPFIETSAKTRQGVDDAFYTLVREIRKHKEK
Sequence of KRAS Q61H (P62937 whole entry): as the sequence (P62937 whole entry) above

Row | Compound | pEC50 [1] | pIC50 [2] | pIC50 [3] | pIC50 [4] | pIC50 [5] | pIC50 [6]
1 | C=CC(=O)N(C)[C@@H]1C[C@H](C)N(C(=O)N(C)[C@H](C(=O)N[C@H]2Cc3nc(cs3)-c3ccc4c(c3)c(c(-c3cccnc3[C@H](C)OC)n4CC)CC(C)(C)COC(=O)[C@@H]3CCCN(N3)C2=O)C(C)C)C1 (atropisomer, axis not shown) [Example A633] | > 5.30 | 6.00 to 7.00 | 7.00 to 8.00 | 7.00 to 8.00 | 7.00 to 8.00 | 7.00 to 8.00
2 | CCn1c(-c2cccnc2[C@H](C)OC)c2c3cc(ccc31)-c1nc(nn1C)C[C@H](NC(=O)[C@@H](COC1CN(C(=O)C#CC(C)(C)N(C)C)C1)C(C)C)C(=O)N1CCC[C@H](N1)C(=O)OCC(C)(C)C2 (atropisomer, axis not shown) [Example A720, (2R)-2-(((1-(4-(dimethylamino)-4-methylpent-2-ynoyl)azetidin-3-yl)oxy)methyl)-N-((6^3S,4S,Z)-1^1-ethyl-1^2-(2-((S)-1-methoxyethyl)pyridin-3-yl)-2^1,10,10-trimethyl-5,7-dioxo-6^1,6^2,6^3,6^4,6^5,6^6-hexahydro-1^1H,2^1H-8-oxa-1(5,3)-indola-6(1,3)-pyridazina-2(5,3)-triazolacycloundecaphane-4-yl)-3-methylbutanamide] | > 5.30 | < 5.00 | 5.00 to 6.00 | 7.00 to 8.00 | 5.00 to 6.00 | 5.00 to 6.00
3 | CCn1c(-c2cccnc2[C@H](C)OC)c2c3cc(ccc31)-c1csc(n1)C[C@H](NC(=O)[C@H](C(C)C)N(C)C(=O)N(C)C1CN(C(=O)/C=C/[C@@H]3CCCN3C)C1)C(=O)N1CCC[C@H](N1)C(=O)OCC(C)(C)C2 (atropisomer, axis not shown) [Example A730] | > 5.30 | 5.00 to 6.00 | 6.00 to 7.00 | 7.00 to 8.00 | 5.00 to 6.00 | 6.00 to 7.00
4 | CCn1c(-c2cccnc2[C@H](C)OC)c2c3cc(ccc31)-c1cccc(c1)C[C@H](NC(=O)[C@@H](COC1CN(C(=O)C#CC(C)(C)N(C)C3CC3)C1)C(C)C)C(=O)N1CCC[C@H](N1)C(=O)OCC(C)(C)C2 (atropisomer, axis not shown) [Example A613] | > 5.30 | < 5.00 | < 5.00 | 5.00 to 6.00 | < 5.00 | < 5.00
5 | C=CC(=O)N1CC2(CCN2C(=O)N(C)[C@H](C(=O)N[C@H]2Cc3cccc(n3)-c3ccc4c(c3)c(c(-c3cccnc3[C@H](C)OC)n4CC)CC(C)(C)COC(=O)[C@@H]3CCCN(N3)C2=O)C(C)C)C1 (atropisomer, axis not shown) [Example A636] | > 5.30 | 5.00 to 6.00 | 6.00 to 7.00 | 7.00 to 8.00 | 6.00 to 7.00 | 6.00 to 7.00
